Test results: PubChem BioAssay AID200 (DTP/NCI, 2004)
Values joined by “and” are separate entries in the source; they are usually repeats but may differ in a detail not shown here. Equal values may be shown once. Toxic doses and inconclusive results are not listed.

System: B6C3F1 mice, B16 melanoma ip, median survival T/C
Assay: NCI In Vivo Anticancer Drug Screen. Data for tumor model B16 Melanoma (intraperitoneal) in B6C3F1 mice
Conditions: endpoint: median survival time, higher = longer survival
Method: The antitumor activity of compounds was measured in mice bearing transplantable tumors. Survival or tumor size were measured and the results are expressed as the measurement made in the treated group (T) divided by the measurement made in the vehicle treated control group (C). The tumor model used in this assay is B16 Melanoma (intraperitoneal) in B6C3F1 mice

[1] = dose: 12.5 mg/kg/injection, schedule: Q01DX009 (ip), vehicle: saline
[2] = dose: 25.0 mg/kg/injection, schedule: Q01DX009 (ip), vehicle: saline
[3] = dose: 50.0 mg/kg/injection, schedule: Q01DX009 (ip), vehicle: saline
[4] = dose: 6.25 mg/kg/injection, schedule: Q01DX009 (ip), vehicle: saline
[5] = dose: 1.5 mg/kg/injection, schedule: Q01DX009 (ip), vehicle: Klucel (hydroxypropylcellulose) (HPC)
[6] = dose: 3.0 mg/kg/injection, schedule: Q01DX009 (ip), vehicle: Klucel (hydroxypropylcellulose) (HPC)
[7] = dose: 6.25 mg/kg/injection, schedule: Q01DX009 (ip), vehicle: Klucel (hydroxypropylcellulose) (HPC)
[8] = dose: 25.0 mg/kg/injection, schedule: Q01DX009 (ip), vehicle: Klucel (hydroxypropylcellulose) (HPC)
[9] = dose: 100.0 mg/kg/injection, schedule: Q01DX009 (ip), vehicle: saline with Tween-80
[10] = dose: 200.0 mg/kg/injection, schedule: Q01DX009 (ip), vehicle: saline with Tween-80
[11] = dose: 400.0 mg/kg/injection, schedule: Q01DX009 (ip), vehicle: saline with Tween-80

## CC(=O)O[C@H]1C(=O)[C@@]2(C)[C@H]([C@H](OC(=O)c3ccccc3)[C@]3(O)C[C@H](OC(=O)[C@H](O)[C@@H](NC(=O)c4ccccc4)c4ccccc4)C(C)=C1C3(C)C)[C@]1(OC(C)=O)CO[C@@H]1C[C@@H]2O
dose: 1.25 mg/kg/injection, schedule: Q01DX008 (ip), vehicle: Klucel (hydroxypropylcellulose) (HPC)
  T/C: 187 % of control
dose: 1.25 mg/kg/injection, schedule: Q01DX009 (ip), vehicle: Klucel (hydroxypropylcellulose) (HPC)
  T/C: 155 % of control and 171 % of control
dose: 1.88 mg/kg/injection, schedule: Q01DX009 (ip), vehicle: Klucel (hydroxypropylcellulose) (HPC)
  T/C: 213 % of control
dose: 2.5 mg/kg/injection, schedule: Q01DX008 (ip), vehicle: Klucel (hydroxypropylcellulose) (HPC)
  T/C: 221 % of control
dose: 3.75 mg/kg/injection, schedule: Q01DX009 (ip), vehicle: Klucel (hydroxypropylcellulose) (HPC)
  T/C: 225 % of control
dose: 5.0 mg/kg/injection, schedule: Q01DX008 (ip), vehicle: Klucel (hydroxypropylcellulose) (HPC)
  T/C: 232 % of control
dose: 6.25 mg/kg/injection, schedule: Q04DX003 (ip), vehicle: Klucel (hydroxypropylcellulose) (HPC)
  T/C: 174 % of control and 186 % of control
dose: 7.5 mg/kg/injection, schedule: Q01DX009 (ip), vehicle: Klucel (hydroxypropylcellulose) (HPC)
  T/C: 327 % of control
dose: 10.0 mg/kg/injection, schedule: Q01DX008 (ip), vehicle: Klucel (hydroxypropylcellulose) (HPC)
  T/C: 112 % of control
dose: 10.0 mg/kg/injection, schedule: Q01DX009 (ip), vehicle: other
  T/C: 154 % of control and 175 % of control
dose: 12.5 mg/kg/injection, schedule: Q04DX003 (ip), vehicle: Klucel (hydroxypropylcellulose) (HPC)
  T/C: 201 % of control and 231 % of control
dose: 20.0 mg/kg/injection, schedule: Q01DX008 (ip), vehicle: Klucel (hydroxypropylcellulose) (HPC)
  T/C: 92 % of control
dose: 25.0 mg/kg/injection, schedule: Q04DX003 (ip), vehicle: Klucel (hydroxypropylcellulose) (HPC)
  T/C: 237 % of control and 254 % of control
dose: 30.0 mg/kg/injection, schedule: Q01DX009 (ip), vehicle: Klucel (hydroxypropylcellulose) (HPC)
  T/C: 89 % of control
dose: 50.0 mg/kg/injection, schedule: Q04DX003 (ip), vehicle: Klucel (hydroxypropylcellulose) (HPC)
  T/C: 169 % of control and 222 % of control
dose: 100.0 mg/kg/injection, schedule: Q04DX003 (ip), vehicle: Klucel (hydroxypropylcellulose) (HPC)
  T/C: 118 % of control

## S=c1c2[nH]cnc2ncn1CCSC1=NC=NC2=NC=NC21 (configuration not stated)
[1]
  T/C: 98 % of control
[2]
  T/C: 104 % of control
[3]
  T/C: 92 % of control
dose: 400.0 mg/kg/injection, schedule: Q01DX009 (ip), vehicle: saline
  T/C: 89 % of control

## O=C1CCCCC1C(=O)C(F)(F)F (configuration not stated)
dose: 4.5 mg/kg/injection, schedule: Q01DX009 (ip), vehicle: saline + Tween-80 + alcohol
  T/C: 103 % of control
dose: 9.0 mg/kg/injection, schedule: Q01DX009 (ip), vehicle: saline + Tween-80 + alcohol
  T/C: 93 % of control
dose: 18.0 mg/kg/injection, schedule: Q01DX009 (ip), vehicle: saline + Tween-80 + alcohol
  T/C: 87 % of control
dose: 50.0 mg/kg/injection, schedule: Q01DX009 (ip), vehicle: saline + Tween-80 + alcohol
  T/C: 102 % of control

## CSC(SC)=C1C(=O)NC(=O)NC1=O
dose: 3.12 mg/kg/injection, schedule: Q01DX009 (ip), vehicle: saline
  T/C: 111 % of control
[4]
  T/C: 101 % of control
[1]
  T/C: 90 % of control
[2]
  T/C: 96 % of control

## O=C1C(=O)c2cccnc2-c2ncccc21
dose: 0.75 mg/kg/injection, schedule: Q01DX009 (ip), vehicle: Klucel (hydroxypropylcellulose) (HPC)
  T/C: 104 % of control
dose: 0.78 mg/kg/injection, schedule: Q01DX009 (ip), vehicle: Klucel (hydroxypropylcellulose) (HPC)
  T/C: 102 % of control
[5]
  T/C: 115 % of control and 107 % of control
dose: 1.56 mg/kg/injection, schedule: Q01DX009 (ip), vehicle: Klucel (hydroxypropylcellulose) (HPC)
  T/C: 115 % of control and 98 % of control
[6]
  T/C: 119 % of control and 92 % of control and 98 % of control
dose: 3.12 mg/kg/injection, schedule: Q01DX009 (ip), vehicle: Klucel (hydroxypropylcellulose) (HPC)
  T/C: 114 % of control and 100 % of control
dose: 6.0 mg/kg/injection, schedule: Q01DX009 (ip), vehicle: Klucel (hydroxypropylcellulose) (HPC)
  T/C: 113 % of control and 87 % of control and 108 % of control
[7]
  T/C: 109 % of control

## C=C(C)[C@@H]1CC[C@]2(C(=O)OC)CC[C@]3(C)[C@H](CC[C@@H]4[C@@]5(C)CC[C@H](O)C(C)(C)[C@@H]5CC[C@]43C)[C@@H]12
[8]
  T/C: 107 % of control
dose: 50.0 mg/kg/injection, schedule: Q01DX009 (ip), vehicle: Klucel (hydroxypropylcellulose) (HPC)
  T/C: 86 % of control

## O=C(NC(=S)Nc1ccccc1)c1ccccc1
dose: 9.4 mg/kg/injection, schedule: Q01DX009 (ip), vehicle: Klucel (hydroxypropylcellulose) (HPC)
  T/C: 99 % of control
dose: 18.75 mg/kg/injection, schedule: Q01DX009 (ip), vehicle: Klucel (hydroxypropylcellulose) (HPC)
  T/C: 94 % of control
dose: 37.5 mg/kg/injection, schedule: Q01DX009 (ip), vehicle: Klucel (hydroxypropylcellulose) (HPC)
  T/C: 101 % of control
dose: 75.0 mg/kg/injection, schedule: Q01DX009 (ip), vehicle: Klucel (hydroxypropylcellulose) (HPC)
  T/C: 103 % of control

## O=C(O)C1C2CC3C(C2)C31.[Ag] (configuration not stated)
[7]
  T/C: 90 % of control
dose: 12.5 mg/kg/injection, schedule: Q01DX009 (ip), vehicle: Klucel (hydroxypropylcellulose) (HPC)
  T/C: 88 % of control
[8]
  T/C: 100 % of control

## CCOC(=O)c1c(C)c(C(=O)OCC)n(C)c1C=O
[9]
  T/C: 95 % of control
[10]
  T/C: 94 % of control
[11]
  T/C: 92 % of control

## O=C1c2ccccc2C(=O)c2c(NCCNCCO)ccc(NCCNCCO)c21
dose: 1.0 mg/kg/injection, schedule: Q01DX009 (ip), vehicle: other
  T/C: 151 % of control
dose: 2.0 mg/kg/injection, schedule: Q01DX009 (ip), vehicle: other
  T/C: 180 % of control and 186 % of control
dose: 2.5 mg/kg/injection, schedule: Q01DX009 (ip), vehicle: water
  T/C: 195 % of control
dose: 4.0 mg/kg/injection, schedule: Q01DX009 (ip), vehicle: other
  T/C: 195 % of control and 248 % of control
dose: 4.0 mg/kg/injection, schedule: Q01DX009 (ip), vehicle: saline
  T/C: 179 % of control
dose: 5.0 mg/kg/injection, schedule: Q01DX009 (ip), vehicle: water
  T/C: 205 % of control
dose: 8.0 mg/kg/injection, schedule: Q01DX009 (ip), vehicle: other
  T/C: 218 % of control and 243 % of control
dose: 8.0 mg/kg/injection, schedule: Q01DX009 (ip), vehicle: saline
  T/C: 234 % of control
dose: 10.0 mg/kg/injection, schedule: Q01DX009 (ip), vehicle: water
  T/C: 215 % of control
dose: 16.0 mg/kg/injection, schedule: Q01DX009 (ip), vehicle: other
  T/C: 215 % of control and 231 % of control
dose: 16.0 mg/kg/injection, schedule: Q01DX009 (ip), vehicle: saline
  T/C: 292 % of control
dose: 20.0 mg/kg/injection, schedule: Q01DX009 (ip), vehicle: water
  T/C: 220 % of control
dose: 32.0 mg/kg/injection, schedule: Q01DX009 (ip), vehicle: saline
  T/C: 292 % of control
dose: 62.5 mg/kg/injection, schedule: Q01DX001 (ip), vehicle: saline
  T/C: 153 % of control

## COC1CC2C=C(C)/C=C/C=C/C(=O)NC(c3ccccc3)C/C=C/CCC(O)CC(=O)C2=C1O (configuration not stated)
[5]
  T/C: 108 % of control
[6]
  T/C: 110 % of control and 119 % of control and 123 % of control
dose: 3.13 mg/kg/injection, schedule: Q01DX009 (ip), vehicle: Klucel (hydroxypropylcellulose) (HPC)
  T/C: 104 % of control
[7]
  T/C: 109 % of control

## COCCCNC1=C(C#N)C(=O)NC(c2cccc([N+](=O)[O-])c2)S1 (configuration not stated)
dose: 3.13 mg/kg/injection, schedule: Q01DX009 (ip), vehicle: saline with Tween-80
  T/C: 112 % of control and 98 % of control
dose: 6.25 mg/kg/injection, schedule: Q01DX009 (ip), vehicle: saline with Tween-80
  T/C: 91 % of control and 96 % of control
dose: 50.0 mg/kg/injection, schedule: Q01DX009 (ip), vehicle: saline with Tween-80
  T/C: 94 % of control and 101 % of control (2×)
[9]
  T/C: 111 % of control and 98 % of control
[10]
  T/C: 111 % of control
[11]
  T/C: 87 % of control

## NCCCNCCCCNC(=O)C(O)NC(=O)CC(O)CCCCN=C(N)N (configuration not stated)
[4]
  T/C: 101 % of control
[1]
  T/C: 99 % of control
[2]
  T/C: 98 % of control and 101 % of control
[3]
  T/C: 99 % of control and 101 % of control
dose: 100.0 mg/kg/injection, schedule: Q01DX009 (ip), vehicle: saline
  T/C: 111 % of control and 107 % of control

## CCN(CC)CCOC(=O)Cc1cccc2c(=O)cc(-c3ccccc3)oc12
[1]
  T/C: 97 % of control and 103 % of control
[2]
  T/C: 115 % of control and 101 % of control
[3]
  T/C: 109 % of control and 99 % of control

## C/C(=N\NC(=O)c1ccccc1O)c1cccc(/C(C)=N/NC(=O)c2ccccc2O)n1
dose: 3.0 mg/kg/injection, schedule: Q01DX009 (ip), vehicle: saline
  T/C: 102 % of control
dose: 6.0 mg/kg/injection, schedule: Q01DX009 (ip), vehicle: saline
  T/C: 96 % of control
